Assay results published in patent publication US20250213566A1, “PHARMACEUTICAL COMPOSITION FOR PREVENTING OR TREATING SKIN DISEASES CAUSED BY RADIATION IRRADIATION COMPRISING DARAPLADIB OR PHARMACEUTICALLY ACCEPTABLE SALT THEREOF AS ACTIVE INGREDIENT” (KOREA INSTITUTE OF RADIOLOGICAL & MEDICAL SCIENCES, priority 2022, published 2025).

Assays:
[1] = system: SKH-1 hairless mice; assay: Skin moisture content (Corneometer), moisture loss (Tewameter) and skin pH after irradiation; type: in vivo; details: 40 Gy local irradiation; day 20 after irradiation; skin pH meter; FIG. 4
Procedure: In order to identify the effect of darapladib in improving radiation-induced skin damage, SKH-1 hairless mice, which has the most similar characteristics to the human skin layer, immune system, and vascular system, was used, and for the irradiated group, local irradiation was performed on the skin in a total of 40 Gy by irradiating two times by 20 Gy at intervals of 5 days. Darapladib was used to suppress radiation-induced skin damage, and subcutaneous injections were given at different concentrations (20 mg/kg and 40 mg/kg). In addition, in order to quantitatively observe the effect of darapladib in inhibiting radiation-induced skin damage, the moisture content, moisture loss, and pH level of the skin were measured on day 20 after irradiation. The moisture content in the skin was measured using Corneometer (Corneometer CM825, CK electronic GmbH, Germany), the moisture loss by Tewameter (TM300, CK electronic GmbH, Germany), and the pH level of the skin by a skin pH meter (pH905, CK electronic GmbH, Germany).

[2] = system: α-SMA; assay: α-SMA expression in irradiated skin by IHC staining, immunofluorescence and Western blot; type: in vivo, mice; details: FIG. 7
Procedure: (§1) In order to identify the effect of darapladib in improving radiation-induced skin damage, SKH-1 hairless mice, which has the most similar characteristics to the human skin layer, immune system, and vascular system, was used, and for the irradiated group, local irradiation was performed on the skin in a total of 40 Gy by irradiating two times by 20 Gy at intervals of 5 days. Darapladib was used to suppress radiation-induced skin damage, and subcutaneous injections were given at different concentrations (20 mg/kg and 40 mg/kg).

[3] = system: SKH-1 hairless mice; assay: Radiation-induced skin damage in SKH-1 hairless mice, appearance of skin; type: in vivo; details: day 20 after irradiation, FIG. 3
Procedure: as §1

[4] = system: vimentin; assay: Vimentin expression in irradiated skin by immunohistochemistry; type: in vivo, mice; details: FIG. 8
Procedure: as §1, with “mg/kg). In addition, to identify the effect of darapladib on vimentin, which is another marker of fibrosis and applicable to immune diseases, immunohistochemistry (IHC) method was applied to stain the surface of the skin.” for “mg/kg).”

[5] = system: human fibroblasts; assay: TGF-β-induced differentiation from fibroblasts to myofibroblasts, immunofluorescence staining of collagen; type: cell-based; details: TGF-β treated fibroblasts; darapladib 0.25 nM and 0.5 nM applied 1 hour before TGF-β; vs TGF-β treated group; FIG. 1
Procedure: To identify the effect of darapladib on suppression of differentiation from fibroblasts to myofibroblasts, used was a transforming growth factor-beta (TGF-β), a growth factor that induces differentiation from human fibroblasts to myofibroblasts. Darapladib was applied to the medium at low concentration (0.25 nM) and high concentration (0.5 nM) respectively 1 hour before TGF-β treatment and then fixed with 4% formaldehyde in a live state in a single-layer culture of fibroblasts, and immunofluorescence staining of collagen was performed, followed by visualization by confocal microscopy.

[6] = system: collagen; assay: Masson's trichrome staining of irradiated skin (collagen deposition); type: in vivo, mice; details: day 20 after irradiation, IR/Dara group, FIG. 6
Procedure: as §1

[7] = system: SKH-1 hairless mice; assay: Histological changes in irradiated skin, hematoxylin and eosin staining, Image J quantification of adipocytes; type: in vivo
Procedure: In order to identify the effect of darapladib in improving radiation-induced skin damage, SKH-1 hairless mice, which has the most similar characteristics to the human skin layer, immune system, and vascular system, was used, and for the irradiated group, local irradiation was performed on the skin in a total of 40 Gy by irradiating two times by 20 Gy at intervals of 5 days. Darapladib was used to suppress radiation-induced skin damage, and subcutaneous injections were given at different concentrations (20 mg/kg and 40 mg/kg). In addition, in order to observe the histological changes in the skin, the extracted tissues were embedded by undergoing a paraffin infiltration process, a 4 μm thinned section was prepared to undergo deparaffinization and hydration followed by staining with hematoxylin and eosin, and then tissue damage, blood vessel damage, and changes in the epidermis, dermis, and adipocyte layer of skin tissue were observed using an optical microscope. In addition, to quantify the degree of skin damage, the area and number of granules in which adipocytes are present were calculated and statistically analyzed using the Image J program.

[8] = irradiated skin sections, H&E, Dara+IR group, FIG. 5A

CCN(CC)CCN(Cc1ccc(-c2ccc(C(F)(F)F)cc2)cc1)C(=O)Cn1c(SCc2ccc(F)cc2)nc(=O)c2c1CCC2 [darapladib]
skin pH [1]: remained slightly acidic
expression of α-SMA ([2]; IR/Dara group vs irradiated group): reduced expression of α-SMA compared to the irradiated group
expression of α-SMA ([2]; high concentration, 40 mg/kg): expression level similar to that of the control group
fibrosis (chronic thickening of skin surface, red wounds, inflammation) ([3]; 40 Gy local irradiation (2 x 20 Gy), subcutaneous 20 mg/kg and 40 mg/kg, vs irradiated group): remarkably reduced
recovery of irradiated skin ([3]; 40 Gy local irradiation, subcutaneous 40 mg/kg (high concentration)): recovery similar to that of the control group without irradiation
vimentin expression ([4]; IR/Dara group): decreased
vimentin expression ([4]; high concentration, 40 mg/kg): similarly to the control group
expression of collagen [5]: decreased significantly
collagen fiber or thickness of the skin layer [6]: restored to a level of the control group
adipocyte granules [7, 8]: retained
thickness of the epidermis and dermis of the skin [7, 8]: restored similar to the control group
area of adipocytes ([7]; irradiated skin, Image J, FIGS. 5B and 5C): significantly recovered
